Measured values published in ChEMBL document CHEMBL1201862, “PubChem BioAssay data set” (2004).
The source made the active and inactive calls.

Columns and labels:
Protein Rev = Protein Rev (Human immunodeficiency virus type 1 group M subtype B (isolate HXB2)(HIV-1), UniProt P04618); assay: inhibitors of Rev binding to RRE RNA, dose response, biochemical, fluorescence polarization, HIV-1 (AID 434976); parameters: species or system Human immunodeficiency virus 1
Protein RecA = molecular target: T1, Protein RecA (Mycobacterium tuberculosis, UniProt P9WHJ3); assay: Fluorescence Cell-Free Homogeneous Dose Retest to Identify Inhibitors of RecA-Intein Splicing Activity. [Related pubchem assays (depositor defined):AID2097, AID2223, AID489010, AID492950]; assay type: functional
T1 sequence (P9WHJ3 whole entry): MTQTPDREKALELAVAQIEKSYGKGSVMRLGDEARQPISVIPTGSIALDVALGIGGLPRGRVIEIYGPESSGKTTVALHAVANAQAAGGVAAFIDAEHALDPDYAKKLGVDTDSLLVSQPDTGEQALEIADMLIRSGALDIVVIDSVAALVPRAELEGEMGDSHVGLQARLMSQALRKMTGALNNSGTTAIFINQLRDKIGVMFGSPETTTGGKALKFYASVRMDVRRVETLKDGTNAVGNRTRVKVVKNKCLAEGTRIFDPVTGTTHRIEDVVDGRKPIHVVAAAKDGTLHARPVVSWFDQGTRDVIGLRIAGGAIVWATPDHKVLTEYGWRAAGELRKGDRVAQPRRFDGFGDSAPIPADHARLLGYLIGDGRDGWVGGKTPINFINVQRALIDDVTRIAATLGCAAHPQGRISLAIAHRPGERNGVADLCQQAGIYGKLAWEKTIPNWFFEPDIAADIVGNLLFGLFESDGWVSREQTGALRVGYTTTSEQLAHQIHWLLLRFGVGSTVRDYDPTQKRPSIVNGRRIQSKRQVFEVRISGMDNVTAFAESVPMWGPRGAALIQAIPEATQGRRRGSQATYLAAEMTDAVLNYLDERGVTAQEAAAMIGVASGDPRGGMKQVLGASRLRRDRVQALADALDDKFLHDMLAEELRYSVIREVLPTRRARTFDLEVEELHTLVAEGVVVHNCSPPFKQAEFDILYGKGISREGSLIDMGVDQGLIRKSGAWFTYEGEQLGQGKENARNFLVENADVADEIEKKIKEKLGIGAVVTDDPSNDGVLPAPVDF

[1] = molecular target: T2, Polyadenylate-binding protein 1 (Homo sapiens, UniProt P11940); assay: PABP1 MLLE–PAM2 binding inhibitor potency, dose response, biochemical, fluorescence polarization, FITC-PAM2 peptide (AID 602259); assay type: functional; details: read-out: IC50_Mean
[2] = molecular target: T3, Replicative DNA helicase DnaB (Mycobacterium tuberculosis, UniProt P9WMR3); assay: DnaB intein splicing inhibitors, dose response, biochemical, cell-free fluorescence (AID 449749); assay type: functional
T3 sequence (P9WMR3 whole entry): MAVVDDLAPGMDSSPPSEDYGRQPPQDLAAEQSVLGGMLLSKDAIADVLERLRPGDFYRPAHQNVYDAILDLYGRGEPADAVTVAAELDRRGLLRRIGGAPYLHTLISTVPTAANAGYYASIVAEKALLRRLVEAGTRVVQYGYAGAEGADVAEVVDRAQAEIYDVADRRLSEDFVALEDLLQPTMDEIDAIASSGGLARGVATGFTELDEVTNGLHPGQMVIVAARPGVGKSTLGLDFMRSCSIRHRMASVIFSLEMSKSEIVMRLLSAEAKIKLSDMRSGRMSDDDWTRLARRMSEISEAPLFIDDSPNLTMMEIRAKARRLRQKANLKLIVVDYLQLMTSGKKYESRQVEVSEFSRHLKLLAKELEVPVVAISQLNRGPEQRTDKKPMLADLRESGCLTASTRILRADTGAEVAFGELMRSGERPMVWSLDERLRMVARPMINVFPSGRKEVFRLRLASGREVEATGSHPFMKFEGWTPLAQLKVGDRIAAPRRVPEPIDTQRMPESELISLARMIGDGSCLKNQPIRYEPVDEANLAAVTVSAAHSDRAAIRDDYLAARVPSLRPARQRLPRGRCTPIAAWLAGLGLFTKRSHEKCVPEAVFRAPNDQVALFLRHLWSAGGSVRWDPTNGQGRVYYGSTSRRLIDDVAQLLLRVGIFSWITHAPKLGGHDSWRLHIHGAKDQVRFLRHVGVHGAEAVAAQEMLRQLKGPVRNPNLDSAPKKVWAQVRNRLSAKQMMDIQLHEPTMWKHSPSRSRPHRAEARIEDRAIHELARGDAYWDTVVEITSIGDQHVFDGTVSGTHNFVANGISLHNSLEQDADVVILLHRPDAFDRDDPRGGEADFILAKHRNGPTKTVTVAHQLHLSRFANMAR

[3] = molecular target: Induced myeloid leukemia cell differentiation protein Mcl-1 (Homo sapiens, UniProt Q07820); assay type: functional
[4] = molecular target: T2, Polyadenylate-binding protein 1; assay: PABP1 MLLE–PAM2 interaction inhibitors, dose response, miRNA deadenylation inhibitor project, biochemical, fluorescence polarization, Cy5-PAM2 peptide, secondary (AID 602260); assay type: functional; details: read-out: IC50_Mean
[5] = molecular target: Eukaryotic translation initiation factor 4E (Mus musculus, UniProt P63073); assay: eIF4E–eIF4G protein interaction inhibitors, dose response, biochemical, TR-FRET (AID 855); assay type: functional;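 further: potency for disrupting eIF4E binding to eIF4GI seen as loss of FRET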
[6] = molecular target: Female germline-specific tumor suppressor gld-1 (Caenorhabditis elegans, UniProt Q17339); assay: inhibitors of GLD-1 binding to TGE RNA, dose response, biochemical, fluorescence polarization, C. elegans (AID 2802);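 further: fluorescence polarization of labeled TGE RNA bound by purified gld-1 protein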
[7] = molecular target: E3 ubiquitin-protein ligase XIAP (Homo sapiens, UniProt P98170); assay: Counter Screen using XIAP-Bir3 for Chemical Antagonists of Bir1/2 domains of IAP-family anti-apoptotic proteins. [Related pubchem assays (depositor defined):AID1018, AID1449, AID1514, AID1638, AID1749, AID1750, AID488957, AID488963]
[8] = molecular target: T4, Serine/threonine-protein phosphatase (Candida dubliniensis (strain CD36 / CBS 7987 / NCPF 3949 / NRRLY-17841) (Yeast), UniProt B9W6M3); assay: calcineurin pathway inhibitors in yeast reporter, dose response, S. cerevisiae, CDRE-lacZ, luminescence, secondary (AID 2388); assay type: functional, cell-based;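 further: yeast reporter cells carrying a calcineurin-responsive lacZ construct stimulated with calcium chloride; luminescent beta-galactosidase reporter signal in whole cells rather than isolated phosphatase activity; potency for inhibition where a drop in reporter signal means calcineurin blockade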
T4 sequence (B9W6M3 whole entry): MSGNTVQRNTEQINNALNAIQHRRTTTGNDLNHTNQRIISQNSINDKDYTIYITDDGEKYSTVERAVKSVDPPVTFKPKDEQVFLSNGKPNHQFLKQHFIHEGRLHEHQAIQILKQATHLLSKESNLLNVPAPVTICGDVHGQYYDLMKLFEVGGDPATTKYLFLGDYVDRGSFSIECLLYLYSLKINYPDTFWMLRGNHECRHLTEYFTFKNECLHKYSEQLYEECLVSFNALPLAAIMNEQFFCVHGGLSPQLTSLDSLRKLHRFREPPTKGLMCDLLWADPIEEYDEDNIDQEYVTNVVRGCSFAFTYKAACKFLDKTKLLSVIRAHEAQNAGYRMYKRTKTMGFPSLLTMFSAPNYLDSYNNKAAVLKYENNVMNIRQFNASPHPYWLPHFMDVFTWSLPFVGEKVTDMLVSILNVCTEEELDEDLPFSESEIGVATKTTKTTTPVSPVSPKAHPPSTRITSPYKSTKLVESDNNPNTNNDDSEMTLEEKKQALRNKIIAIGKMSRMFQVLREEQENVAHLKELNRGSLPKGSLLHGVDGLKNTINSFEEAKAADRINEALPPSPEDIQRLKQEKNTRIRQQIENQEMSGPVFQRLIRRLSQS

Exodeoxyribonuclease V = Exodeoxyribonuclease V (Escherichia coli (strain K12), UniProt P04993+P07648+P08394); assay: E. coli RecBCD inhibitors, dose response, counter-screen for AddAB inhibitor project, absorbance, V66 E. coli, mutant T4 phage (AID 492957); assay type: functional, cell-based, Escherichia coli str. K-12 substr. MG1655
INS1 = assay: beta cell apoptosis inhibitors, cytokine rescue, dose response, luminescence, retest (AID 449756); assay type: functional, cell-based; details: Rattus norvegicus;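 further: cell death triggered by IL-1 beta plus TNF-alpha plus IFN-gamma mixture; protective hits raise ATP signal compared with cytokine alone wells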
cells [9] = assay type: functional, cell-based
[10] = C. albicans growth with fluconazole, confirmation, fluorescence, retest (AID 2467); assay type: functional, cell-based
Vero = assay: cells; assay type: functional; details: Chlorocebus sabaeus
[11] = NIH-3T3 fibroblast cytotoxicity, dose response, cytotoxicity control, cell-based, fluorescence, Alamar Blue, secondary assay (AID 2327); assay type: functional;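 further: NIH-3T3 mouse fibroblasts cultured with fluconazole at 8 µg/mL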
cells [12] = assay type: functional, cell-based; remark: listed apart in the source
[13] = inhibitors of intracellular T. cruzi replication, confirmation, NIH3T3 host cells, beta-gal luminescence (AID 2044); assay type: functional, cell-based;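 further: intracellular parasites grown in NIH/3T3 mouse fibroblasts as host cells; luminescent beta-galactosidase reporter signal from transgenic T. cruzi replicating inside host cells; inhibitors lower the luminescence signal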
[14] = molecular target: Heat shock protein HSP 90-alpha (Homo sapiens, UniProt P07900); assay type: functional, organism-based
[15] = Counterscreen for AddAB inhibitors: absorbance-based bacterial cell-based high throughput dose response assay for inhibitors of bacterial viability. [Related pubchem assays (depositor defined):AID435030, AID449728, AID449731, AID488942, AID488955, AID488956]; assay type: functional
[16] = cytotoxicity toward NIH3T3 fibroblasts, dose response, counter-screen, cell-based, ATP luminescence, mouse fibroblasts (AID 2010); assay type: functional;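 further: cells exposed to compound for about 90 hours before reading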
[17] = molecular target: ATP-dependent molecular chaperone HSP82 (Candida albicans (strain WO-1) (Yeast), UniProt C4YTQ8); assay: loss of DOC-induced GRE-beta-galactosidase reporter signal, dose response, Hsp90 inhibitor project, S. cerevisiae, luminescence (AID 2400); assay type: functional, cell-based;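 further: beta-galactosidase luminescence from glucocorticoid response element reporter as proxy for Hsp90 function; inhibitor potency where signal loss means Hsp90 inhibition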
[18] = cytotoxicity in MIN6 insulinoma cells, dose response, cytotoxicity control, cell-based, mouse insulinoma (AID 2122); assay type: functional;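 further: confirmatory high-throughput counterscreen run to flag cytotoxic compounds; mouse MIN-6 beta cells carrying an insulin promoter eGFP reporter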
[19] = insulin promoter down-regulators in MIN6 cells, imaging, high-content screening, mouse beta cells (AID 1628); assay type: functional

T2 sequence (P11940 whole entry): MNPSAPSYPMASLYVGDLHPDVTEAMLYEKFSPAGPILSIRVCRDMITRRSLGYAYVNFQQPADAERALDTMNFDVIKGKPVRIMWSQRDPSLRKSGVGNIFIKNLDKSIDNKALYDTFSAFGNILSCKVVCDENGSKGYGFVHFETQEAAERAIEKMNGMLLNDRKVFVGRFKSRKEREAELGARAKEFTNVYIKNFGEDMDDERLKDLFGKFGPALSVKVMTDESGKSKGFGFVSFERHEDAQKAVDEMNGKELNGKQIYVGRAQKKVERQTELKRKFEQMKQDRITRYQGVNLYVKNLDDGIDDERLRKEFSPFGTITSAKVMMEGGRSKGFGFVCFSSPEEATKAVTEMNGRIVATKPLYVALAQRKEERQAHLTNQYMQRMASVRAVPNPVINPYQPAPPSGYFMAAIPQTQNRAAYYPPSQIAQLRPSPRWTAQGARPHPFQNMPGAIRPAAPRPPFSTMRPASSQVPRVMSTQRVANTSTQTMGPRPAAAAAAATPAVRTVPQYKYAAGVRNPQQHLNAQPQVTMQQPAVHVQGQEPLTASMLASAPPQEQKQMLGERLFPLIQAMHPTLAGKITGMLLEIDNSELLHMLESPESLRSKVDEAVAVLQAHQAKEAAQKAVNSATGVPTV
Chain of ATP-dependent molecular chaperone HSP82 (C4YTQ8 whole entry): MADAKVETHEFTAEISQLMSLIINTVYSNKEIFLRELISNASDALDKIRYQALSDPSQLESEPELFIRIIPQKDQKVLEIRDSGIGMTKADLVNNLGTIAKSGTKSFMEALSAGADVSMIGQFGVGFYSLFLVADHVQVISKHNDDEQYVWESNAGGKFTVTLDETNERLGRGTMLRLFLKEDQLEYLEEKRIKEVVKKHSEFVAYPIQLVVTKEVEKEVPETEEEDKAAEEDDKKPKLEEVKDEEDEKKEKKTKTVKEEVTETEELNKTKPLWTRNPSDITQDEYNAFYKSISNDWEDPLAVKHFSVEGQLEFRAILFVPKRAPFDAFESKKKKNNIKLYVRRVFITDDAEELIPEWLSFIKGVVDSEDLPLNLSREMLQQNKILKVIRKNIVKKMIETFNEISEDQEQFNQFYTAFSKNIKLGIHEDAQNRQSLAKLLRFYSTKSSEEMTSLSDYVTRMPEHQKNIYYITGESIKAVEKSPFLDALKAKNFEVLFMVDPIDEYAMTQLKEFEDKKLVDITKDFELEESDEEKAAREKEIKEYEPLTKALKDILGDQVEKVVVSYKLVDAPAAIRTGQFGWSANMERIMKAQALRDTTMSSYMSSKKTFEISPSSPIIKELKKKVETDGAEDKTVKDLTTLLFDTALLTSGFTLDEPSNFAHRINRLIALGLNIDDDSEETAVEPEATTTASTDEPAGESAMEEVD
Chain of Exodeoxyribonuclease V (P04993 whole entry): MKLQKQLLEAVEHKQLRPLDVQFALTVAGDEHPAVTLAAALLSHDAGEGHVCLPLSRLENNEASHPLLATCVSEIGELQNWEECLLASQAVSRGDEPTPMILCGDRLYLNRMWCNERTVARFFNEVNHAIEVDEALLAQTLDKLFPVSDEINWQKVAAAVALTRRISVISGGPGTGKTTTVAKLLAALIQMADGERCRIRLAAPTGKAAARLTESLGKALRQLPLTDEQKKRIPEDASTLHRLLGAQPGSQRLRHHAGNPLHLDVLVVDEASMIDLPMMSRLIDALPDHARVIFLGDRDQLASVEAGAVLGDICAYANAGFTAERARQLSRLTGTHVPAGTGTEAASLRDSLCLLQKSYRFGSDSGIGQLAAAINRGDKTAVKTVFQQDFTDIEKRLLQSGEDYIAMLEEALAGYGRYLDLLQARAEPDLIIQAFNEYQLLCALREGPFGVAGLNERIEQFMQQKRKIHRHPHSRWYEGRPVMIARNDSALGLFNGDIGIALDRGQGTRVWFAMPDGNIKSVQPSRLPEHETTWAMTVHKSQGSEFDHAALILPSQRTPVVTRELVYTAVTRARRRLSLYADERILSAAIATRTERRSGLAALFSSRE
Chain of Exodeoxyribonuclease V (P07648 whole entry): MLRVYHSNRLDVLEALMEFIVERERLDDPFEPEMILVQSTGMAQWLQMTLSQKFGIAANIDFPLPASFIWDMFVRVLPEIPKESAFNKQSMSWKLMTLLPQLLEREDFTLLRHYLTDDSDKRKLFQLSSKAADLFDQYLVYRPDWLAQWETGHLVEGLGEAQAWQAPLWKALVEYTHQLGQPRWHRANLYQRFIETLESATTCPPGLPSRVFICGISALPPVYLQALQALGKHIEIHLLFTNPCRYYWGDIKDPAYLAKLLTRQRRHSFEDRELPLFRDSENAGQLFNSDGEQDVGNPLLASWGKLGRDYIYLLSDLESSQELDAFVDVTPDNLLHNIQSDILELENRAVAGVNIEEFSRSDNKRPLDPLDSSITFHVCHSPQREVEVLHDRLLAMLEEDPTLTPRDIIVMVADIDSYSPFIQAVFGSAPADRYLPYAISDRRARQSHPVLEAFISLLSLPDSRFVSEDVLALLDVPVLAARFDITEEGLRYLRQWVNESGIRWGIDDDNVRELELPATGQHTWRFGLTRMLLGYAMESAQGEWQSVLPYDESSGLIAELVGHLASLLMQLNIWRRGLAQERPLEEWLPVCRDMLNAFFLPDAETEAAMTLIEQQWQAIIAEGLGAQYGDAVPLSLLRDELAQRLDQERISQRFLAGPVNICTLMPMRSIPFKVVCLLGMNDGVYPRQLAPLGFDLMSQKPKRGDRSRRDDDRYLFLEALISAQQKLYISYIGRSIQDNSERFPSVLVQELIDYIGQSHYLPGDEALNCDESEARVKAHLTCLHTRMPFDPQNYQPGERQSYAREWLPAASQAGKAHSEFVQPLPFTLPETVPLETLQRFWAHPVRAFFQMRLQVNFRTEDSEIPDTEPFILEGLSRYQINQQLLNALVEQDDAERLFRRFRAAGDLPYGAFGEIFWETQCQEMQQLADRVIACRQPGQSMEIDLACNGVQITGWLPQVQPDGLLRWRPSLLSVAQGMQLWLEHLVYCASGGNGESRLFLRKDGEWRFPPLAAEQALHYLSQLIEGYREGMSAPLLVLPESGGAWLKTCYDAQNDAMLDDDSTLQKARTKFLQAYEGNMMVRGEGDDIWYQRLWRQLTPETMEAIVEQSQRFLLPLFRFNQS
Chain of Exodeoxyribonuclease V (P08394 whole entry): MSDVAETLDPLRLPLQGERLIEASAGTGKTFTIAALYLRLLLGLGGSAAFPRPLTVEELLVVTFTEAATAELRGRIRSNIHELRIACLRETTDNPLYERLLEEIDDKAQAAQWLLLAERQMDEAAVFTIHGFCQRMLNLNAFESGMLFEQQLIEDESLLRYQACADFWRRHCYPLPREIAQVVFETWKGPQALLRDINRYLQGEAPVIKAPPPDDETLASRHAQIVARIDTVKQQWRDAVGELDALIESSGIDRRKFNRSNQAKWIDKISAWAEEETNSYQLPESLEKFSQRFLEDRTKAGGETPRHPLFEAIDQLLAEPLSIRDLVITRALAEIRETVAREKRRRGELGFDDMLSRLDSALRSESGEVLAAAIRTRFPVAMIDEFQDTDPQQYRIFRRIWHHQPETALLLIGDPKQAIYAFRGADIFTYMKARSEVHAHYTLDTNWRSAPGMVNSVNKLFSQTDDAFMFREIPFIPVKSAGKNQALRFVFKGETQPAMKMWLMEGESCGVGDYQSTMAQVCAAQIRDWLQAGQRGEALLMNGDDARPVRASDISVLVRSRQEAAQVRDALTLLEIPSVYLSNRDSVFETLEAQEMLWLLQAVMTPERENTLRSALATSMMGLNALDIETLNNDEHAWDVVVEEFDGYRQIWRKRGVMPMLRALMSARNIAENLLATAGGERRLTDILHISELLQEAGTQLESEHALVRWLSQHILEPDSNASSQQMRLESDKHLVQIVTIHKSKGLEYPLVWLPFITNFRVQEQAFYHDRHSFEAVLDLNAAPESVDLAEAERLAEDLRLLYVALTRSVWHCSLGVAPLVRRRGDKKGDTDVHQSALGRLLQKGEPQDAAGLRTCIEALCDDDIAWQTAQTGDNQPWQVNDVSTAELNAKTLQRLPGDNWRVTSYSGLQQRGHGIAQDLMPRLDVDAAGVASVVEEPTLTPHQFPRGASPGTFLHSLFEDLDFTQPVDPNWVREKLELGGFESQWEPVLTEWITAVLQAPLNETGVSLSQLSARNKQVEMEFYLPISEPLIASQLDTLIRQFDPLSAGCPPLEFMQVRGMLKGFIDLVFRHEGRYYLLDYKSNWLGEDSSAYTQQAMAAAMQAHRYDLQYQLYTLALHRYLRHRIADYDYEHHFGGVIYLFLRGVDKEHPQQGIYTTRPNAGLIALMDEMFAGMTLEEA
Chain of Induced myeloid leukemia cell differentiation protein Mcl-1 (Q07820 whole entry): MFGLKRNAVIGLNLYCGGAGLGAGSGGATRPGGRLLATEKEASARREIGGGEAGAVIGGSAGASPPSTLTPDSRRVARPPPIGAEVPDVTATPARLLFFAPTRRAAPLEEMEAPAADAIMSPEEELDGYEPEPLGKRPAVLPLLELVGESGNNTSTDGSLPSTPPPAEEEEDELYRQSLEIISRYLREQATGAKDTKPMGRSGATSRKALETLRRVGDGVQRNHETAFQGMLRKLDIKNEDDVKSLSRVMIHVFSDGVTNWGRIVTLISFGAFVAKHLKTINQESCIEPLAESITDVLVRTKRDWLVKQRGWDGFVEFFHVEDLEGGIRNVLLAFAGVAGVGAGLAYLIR
Chain of Eukaryotic translation initiation factor 4E (P63073 whole entry): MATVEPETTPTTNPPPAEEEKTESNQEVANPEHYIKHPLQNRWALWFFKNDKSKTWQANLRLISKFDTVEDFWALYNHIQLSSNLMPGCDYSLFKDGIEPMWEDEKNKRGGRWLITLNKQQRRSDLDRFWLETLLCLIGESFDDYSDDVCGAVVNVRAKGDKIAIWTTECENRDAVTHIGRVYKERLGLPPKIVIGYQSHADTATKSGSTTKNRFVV
Chain of Protein Rev (P04618 whole entry): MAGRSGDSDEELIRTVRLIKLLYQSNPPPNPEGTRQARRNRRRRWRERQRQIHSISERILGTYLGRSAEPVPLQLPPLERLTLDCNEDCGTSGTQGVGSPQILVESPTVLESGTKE

## Nc1ccc(O)c2c1C(=O)c1ccccc1C2=O
Protein Rev
  IC50: > 75.4 µM (not active)
Protein RecA
  EC50: 39 µM (active)
[1]
  IC50: 24.3 µM (inactive)
[2]
  AC50: 79.2 µM (active)
[3]
  IC50: 4.35 µM (active)
[4]
  IC50: > 66 µM (inactive)
[5]
  IC50: 25.7 µM (active)
[6]
  IC50: 3.05 µM (active)
[7]
  IC50: < 0.313 µM (active)

## CCC(=O)NC(c1cccs1)c1cc(Cl)c2cccnc2c1O (centres undefined)
[8]
  EC50: > 180 µM (inactive)
Exodeoxyribonuclease V
  IC50: > 119 µM (inactive)
INS1
  AC50: 1.28 µM (active)
Cells [9]
  EC50: > 350 µM (not active)
[10]
  EC50: 0.48 µM (active)
Vero
  CC50: 3.84 µM (active)
[11]
  EC50: 34.7 µM (active)
Cells [12]
  EC50: 61.3 µM (active)
[13]
  EC50: 0.692 µM (active)
[14]
  AC50: 3.61 µM (active)
[15]
  IC50: > 119 µM (inactive)
[16]
  EC50: 1.13 µM (active)
[17]
  EC50: > 150 µM (inactive)

## CC(=O)Nc1ccc(S(=O)(=O)N(C)CCOCc2ccccc2)cc1
[18]
  IC50: 1.48 µM (active)
[19]
  IC50: 1.82 µM (active)
